Data from US8541427B2, “Phenyl-substituted 2-imino-3-methyl pyrrolo pyrimidinone compounds as BACE-1 inhibitors, compositions, and their use” (Merck, Sharp & Dohme, Corp., priority 2008, dated 2013).
Where two headings read alike, the source gives them in different places.

What was measured:
[1] = molecular target: CYP3A4 (Homo sapiens (Human), UniProt P08684); assay: CYP Inhibition Assay, CYP3A4; format: in vitro ADME; conditions: human liver microsomes;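 further: CYP probe substrate held near its Km, inhibition judged from metabolite formation quantified by LC-MS/MS against a standard curve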
CYP3A4, sequence (P08684 whole entry): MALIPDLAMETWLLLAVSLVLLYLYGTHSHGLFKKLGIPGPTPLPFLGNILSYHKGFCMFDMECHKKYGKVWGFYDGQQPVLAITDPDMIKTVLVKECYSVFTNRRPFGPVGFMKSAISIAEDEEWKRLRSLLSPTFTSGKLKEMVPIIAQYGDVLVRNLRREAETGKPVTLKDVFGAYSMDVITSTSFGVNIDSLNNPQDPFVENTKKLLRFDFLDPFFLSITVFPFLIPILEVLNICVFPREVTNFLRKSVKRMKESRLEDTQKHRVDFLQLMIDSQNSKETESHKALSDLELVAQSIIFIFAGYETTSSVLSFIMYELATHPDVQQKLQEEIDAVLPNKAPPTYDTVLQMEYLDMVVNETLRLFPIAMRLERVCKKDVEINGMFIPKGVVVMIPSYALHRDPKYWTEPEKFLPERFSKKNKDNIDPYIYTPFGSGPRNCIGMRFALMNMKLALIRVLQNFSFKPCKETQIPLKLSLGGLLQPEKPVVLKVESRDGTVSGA

[2] = molecular target: CYP2D6 (Homo sapiens (Human), UniProt P10635); assay: CYP Inhibition Assay, CYP2D6; format: in vitro ADME; conditions: human liver microsomes
CYP2D6, sequence (P10635 whole entry): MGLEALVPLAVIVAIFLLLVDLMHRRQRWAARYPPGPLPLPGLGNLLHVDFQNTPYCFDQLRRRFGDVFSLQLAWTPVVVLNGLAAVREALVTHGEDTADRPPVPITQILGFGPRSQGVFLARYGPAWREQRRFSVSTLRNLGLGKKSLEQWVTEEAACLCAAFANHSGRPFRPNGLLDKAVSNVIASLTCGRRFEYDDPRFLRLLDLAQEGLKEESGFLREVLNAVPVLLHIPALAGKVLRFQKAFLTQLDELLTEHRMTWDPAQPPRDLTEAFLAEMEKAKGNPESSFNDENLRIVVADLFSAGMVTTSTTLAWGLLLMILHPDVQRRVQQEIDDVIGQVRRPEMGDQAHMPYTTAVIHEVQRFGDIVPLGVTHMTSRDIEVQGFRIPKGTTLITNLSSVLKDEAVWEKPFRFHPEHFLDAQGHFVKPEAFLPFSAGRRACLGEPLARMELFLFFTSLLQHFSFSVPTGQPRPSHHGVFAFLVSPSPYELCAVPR

[3] = molecular target: CYP2C9 (Homo sapiens (Human), UniProt P11712); assay: CYP Inhibition Assay, CYP2C9; format: in vitro ADME; conditions: human liver microsomes;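 further: probe substrate held close to its Km, with metabolite formation quantified by LC-MS/MS against a calibration curve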
CYP2C9, sequence (P11712 whole entry, the tested form may be a part): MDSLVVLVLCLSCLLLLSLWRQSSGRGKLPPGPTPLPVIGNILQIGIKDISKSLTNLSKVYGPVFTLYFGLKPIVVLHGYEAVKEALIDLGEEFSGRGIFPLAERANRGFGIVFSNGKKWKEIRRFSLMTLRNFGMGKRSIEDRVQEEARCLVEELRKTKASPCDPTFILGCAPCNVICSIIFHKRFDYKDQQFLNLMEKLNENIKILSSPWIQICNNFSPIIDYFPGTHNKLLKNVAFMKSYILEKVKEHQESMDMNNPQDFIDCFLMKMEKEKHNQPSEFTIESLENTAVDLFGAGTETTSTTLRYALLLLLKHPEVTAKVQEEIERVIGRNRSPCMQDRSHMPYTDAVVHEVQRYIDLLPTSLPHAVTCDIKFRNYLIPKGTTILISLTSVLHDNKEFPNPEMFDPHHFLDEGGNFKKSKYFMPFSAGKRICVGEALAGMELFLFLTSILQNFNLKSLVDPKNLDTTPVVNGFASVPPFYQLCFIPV

[4] = molecular target: soluble human BACE1 catalytic domain (Homo sapiens (Human), UniProt P56817); assay: BACE1 HTRF FRET Assay; format: biochemical; conditions: Ki calculated from IC50 with Cheng-Prusoff equation;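 further: cleavage of a quenched APP Swedish mutant peptide (QSY7 quencher, Europium donor) measured as rise in 620 nm fluorescence after 1.5 h at 30 °C, inhibition suppresses signal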
soluble human BACE1 catalytic domain, sequence (P56817 75-416): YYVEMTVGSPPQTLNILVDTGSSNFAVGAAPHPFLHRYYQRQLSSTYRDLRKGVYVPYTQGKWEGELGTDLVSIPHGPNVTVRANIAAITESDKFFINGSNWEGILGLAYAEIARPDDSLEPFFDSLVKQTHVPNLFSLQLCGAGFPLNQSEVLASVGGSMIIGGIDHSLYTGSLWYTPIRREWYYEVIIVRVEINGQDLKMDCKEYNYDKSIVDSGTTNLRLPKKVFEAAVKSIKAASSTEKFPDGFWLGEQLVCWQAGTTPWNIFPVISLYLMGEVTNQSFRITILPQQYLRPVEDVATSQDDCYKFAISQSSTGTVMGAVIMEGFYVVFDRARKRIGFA

[5] = molecular target: BACE1 (Aβ40 in HEK293-APPswe/lon cells) (Homo sapiens (Human), UniProt P56817); assay: BACE Inhibitor Whole Cell IC50 Determination Using HEK293-APPswe/lon Cells (Aβ40); format: cell-based; conditions: 4 hours
BACE1 (Aβ40 in HEK293-APPswe/lon cells), sequence (P56817 46-501): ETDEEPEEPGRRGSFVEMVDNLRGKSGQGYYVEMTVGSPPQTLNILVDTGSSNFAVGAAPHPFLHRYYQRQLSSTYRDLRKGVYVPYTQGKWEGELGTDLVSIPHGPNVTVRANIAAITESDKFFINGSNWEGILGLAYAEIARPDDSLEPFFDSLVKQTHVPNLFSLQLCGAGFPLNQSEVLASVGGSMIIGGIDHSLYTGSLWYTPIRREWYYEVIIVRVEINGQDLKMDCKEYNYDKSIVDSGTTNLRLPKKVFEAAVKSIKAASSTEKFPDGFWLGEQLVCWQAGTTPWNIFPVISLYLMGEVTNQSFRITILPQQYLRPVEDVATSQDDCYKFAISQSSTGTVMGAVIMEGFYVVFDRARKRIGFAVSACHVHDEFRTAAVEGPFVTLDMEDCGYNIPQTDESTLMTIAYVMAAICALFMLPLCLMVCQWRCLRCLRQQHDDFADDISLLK

[6] = molecular target: human liver Cathepsin D (Homo sapiens (Human), UniProt P07339); assay: Human Cathepsin D FRET Assay; format: biochemical; conditions: selectivity with respect to Cathepsin D vs BACE1
human liver Cathepsin D, sequence (P07339 65-412): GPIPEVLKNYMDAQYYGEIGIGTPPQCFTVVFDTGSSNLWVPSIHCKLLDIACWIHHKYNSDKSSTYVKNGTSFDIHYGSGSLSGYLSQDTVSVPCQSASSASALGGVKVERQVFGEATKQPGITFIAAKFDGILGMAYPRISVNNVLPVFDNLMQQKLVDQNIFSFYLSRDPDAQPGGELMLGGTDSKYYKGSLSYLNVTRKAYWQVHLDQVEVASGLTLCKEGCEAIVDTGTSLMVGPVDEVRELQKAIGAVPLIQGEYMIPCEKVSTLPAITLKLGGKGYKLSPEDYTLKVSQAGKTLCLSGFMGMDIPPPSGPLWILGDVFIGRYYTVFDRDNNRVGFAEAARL
human liver Cathepsin D, sequence (P07339 169-412): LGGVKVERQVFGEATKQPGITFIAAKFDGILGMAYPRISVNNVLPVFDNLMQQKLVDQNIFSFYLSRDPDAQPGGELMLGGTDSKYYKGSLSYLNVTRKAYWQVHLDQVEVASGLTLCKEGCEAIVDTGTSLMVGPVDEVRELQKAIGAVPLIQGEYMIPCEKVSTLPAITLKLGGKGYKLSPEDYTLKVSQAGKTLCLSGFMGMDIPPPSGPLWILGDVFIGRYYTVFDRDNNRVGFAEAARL

[7] = molecular target: hERG (Homo sapiens (Human), UniProt Q12809); assay: hERG screening, IonWorks Quattro (hERG L929 cells); format: cell-based; conditions: L929 cells expressing hERG; for inhibition at 5 min, 1 uM: read-out: HERG Ionworks % Inhib 1 uM; for inhibition at 5 min, 10 uM: read-out: HERG Ionworks % Inhib 10 uM
hERG, sequence (Q12809 whole entry): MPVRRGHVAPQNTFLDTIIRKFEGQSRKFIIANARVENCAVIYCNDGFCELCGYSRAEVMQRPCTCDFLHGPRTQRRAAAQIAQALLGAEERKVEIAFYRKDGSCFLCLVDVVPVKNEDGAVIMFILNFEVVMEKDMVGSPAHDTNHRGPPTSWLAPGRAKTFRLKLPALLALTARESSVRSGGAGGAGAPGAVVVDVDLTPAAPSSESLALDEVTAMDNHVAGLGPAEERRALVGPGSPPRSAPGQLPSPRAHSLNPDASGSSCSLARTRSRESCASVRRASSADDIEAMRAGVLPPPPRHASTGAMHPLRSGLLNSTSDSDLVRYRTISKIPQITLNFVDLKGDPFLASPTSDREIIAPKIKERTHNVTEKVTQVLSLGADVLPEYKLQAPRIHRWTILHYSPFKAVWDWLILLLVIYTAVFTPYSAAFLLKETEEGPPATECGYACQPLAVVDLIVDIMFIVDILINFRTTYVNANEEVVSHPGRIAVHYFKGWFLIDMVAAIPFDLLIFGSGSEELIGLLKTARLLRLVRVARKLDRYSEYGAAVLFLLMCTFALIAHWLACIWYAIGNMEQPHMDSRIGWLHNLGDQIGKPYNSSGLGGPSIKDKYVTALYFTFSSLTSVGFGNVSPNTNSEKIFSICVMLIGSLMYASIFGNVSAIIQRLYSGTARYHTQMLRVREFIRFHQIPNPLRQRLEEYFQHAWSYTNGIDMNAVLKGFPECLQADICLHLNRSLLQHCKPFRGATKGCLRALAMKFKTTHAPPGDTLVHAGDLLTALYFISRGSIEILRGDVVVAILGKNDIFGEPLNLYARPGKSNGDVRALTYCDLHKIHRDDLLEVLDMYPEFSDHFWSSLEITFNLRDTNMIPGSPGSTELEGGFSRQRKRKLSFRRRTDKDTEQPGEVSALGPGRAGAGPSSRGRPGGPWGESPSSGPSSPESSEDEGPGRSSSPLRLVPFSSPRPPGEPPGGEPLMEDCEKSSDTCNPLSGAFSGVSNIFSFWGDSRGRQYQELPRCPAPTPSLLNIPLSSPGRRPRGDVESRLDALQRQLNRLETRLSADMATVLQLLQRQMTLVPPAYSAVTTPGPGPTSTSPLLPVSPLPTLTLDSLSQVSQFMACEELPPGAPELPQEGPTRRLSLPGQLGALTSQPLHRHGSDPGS

[8] = 30 min pre-incubation with NADPH, read-out: CYP 3A4 IC50 pre
[9] = co-incubation, read-out: CYP 3A4 IC50 co
[10] = 30 min pre-incubation with NADPH, read-out: CYP 2D6 IC50 pre
[11] = co-incubation, read-out: CYP 2D6 IC50 co
[12] = 30 min pre-incubation with NADPH, read-out: CYP 2C9 IC50 pre
[13] = co-incubation, read-out: CYP 2C9 IC50 co

SMILES | IC50 [1, 8] [µM] | IC50 [1, 9] [µM] | IC50 [2, 10] [µM] | IC50 [2, 11] [µM] | IC50 [3, 12] [µM] | IC50 [3, 13] [µM] | Ki [4] [µM] | IC50 [5] [µM] | CathD Selectivity [6] | inhibition at 5 min, 1 uM [7] [%] | inhibition at 5 min, 10 uM [7] [%]
CCOc1nc(N2C[C@H]3C(=O)N(C)C(N)=N[C@@]3(c3ccccc3)C2)nc(C)c1F (racemic) [4 racemic] | > 30 | > 30 | > 30 | ~30 | > 30 | > 30 | – | – | – | – | –
CCc1nc(N2C[C@H]3C(=O)N(C)C(N)=N[C@@]3(c3ccccc3)C2)nc(C)c1F (racemic) [5 racemic] | > 30 | > 30 | > 30 | ~30 | > 30 | > 30 | 0.061 | 0.217 | – | – | –
CCc1nc(N2C[C@H]3C(=O)N(C)C(=N)N[C@@]3(c3ccccc3)C2)nc(OC)c1F (racemic) [6 racemic] | > 30 | > 30 | ~30 | 24.9 | > 30 | > 30 | 0.016 | 0.144 | 318 | – | –
Cc1nc(N2C[C@H]3C(=O)N(C)C(N)=N[C@@]3(c3ccccc3)C2)nc(C2CC2)c1Cl (racemic) [7 racemic] | – | – | – | – | – | – | 0.094 | 0.664 | – | – | –
Cc1nc(N2C[C@H]3C(=O)N(C)C(N)=N[C@@]3(c3ccccc3)C2)nc(C)c1F (racemic) [23 racemic] | > 30 | > 30 | > 30 | > 30 | > 30 | > 30 | 0.154 | 0.292 | – | – | –
CCOc1nc(N2C[C@H]3C(=O)N(C)C(=N)N[C@@]3(c3ccccc3)C2)nc(OC)c1F (racemic) [24 racemic] | > 30 | > 30 | ~30 | 22.6 | > 30 | > 30 | 0.137 | – | 129 | – | –
Cc1nc(N2C[C@H]3C(=O)N(C)C(N)=N[C@@]3(c3ccccc3)C2)nc(C2CC2)c1F (racemic) [25 racemic] | > 20 | > 20 | > 20 | > 20 | > 20 | > 20 | 0.044 | 0.349 | – | – | –
CCc1nc(N2C[C@H]3C(=O)N(C)C(N)=N[C@@]3(c3ccccc3)C2)nc(C2CC2)c1Cl (racemic) [26 racemic] | > 20 | > 20 | > 20 | > 20 | > 20 | > 20 | 0.18 | – | – | – | –
COc1nc(N2C[C@H]3C(=O)N(C)C(N)=N[C@@]3(c3cc(F)c(F)cc3F)C2)nc(C)c1F [Example 8] | > 20 | > 20 | > 20 | > 20 | > 20 | > 20 | – | – | – | 21 | 89
Cc1nc(N2C[C@H]3C(=O)N(C)C(=N)N[C@@]3(c3cccc(C#N)c3)C2)nc(C2CC2)c1F [Example 14] | > 20 | > 20 | > 20 | > 20 | > 20 | > 20 | 0.043 | 0.213 | – | 6 | 59
COc1nc(N2C[C@H]3C(=O)N(C)C(=N)N[C@@]3(c3ccccc3F)C2)nc(C)c1Cl [Example 18] | – | – | – | – | – | – | 0.0093 | 0.032 | 228 | – | –
COc1nc(N2C[C@H]3C(=O)N(C)C(=N)N[C@@]3(c3ccc(F)cc3)C2)nc(C2CC2)c1F [Example 21] | > 20 | > 20 | 10.1 | 13.7 | > 20 | > 20 | 0.0048 | 0.05 | 50 | 7 | 73
COc1nc(N2C[C@H]3C(=O)N(C)C(=N)N[C@@]3(c3cccc(Cl)c3)C2)nc(C)c1F [Example 33] | – | – | – | – | – | – | 0.039 | 0.176 | 43 | – | –
COc1nc(N2C[C@H]3C(=O)N(C)C(N)=N[C@@]3(c3c(F)ccc(F)c3F)C2)nc(C)c1F [Example 40] | > 20 | > 20 | > 20 | > 20 | > 20 | > 20 | – | – | – | 15 | 81

Further lines, with some results ahead:

IC50 [1, 8] [µM] | IC50 [1, 9] [µM] | IC50 [2, 10] [µM] | IC50 [2, 11] [µM] | IC50 [3, 12] [µM] | IC50 [3, 13] [µM] | Ki [4] [µM] | IC50 [5] [µM] | CathD Selectivity [6] | SMILES | inhibition at 5 min, 1 uM [7] [%] | inhibition at 5 min, 10 uM [7] [%]
> 20 | > 20 | > 20 | > 20 | > 20 | > 20 | 0.0092 | 0.04 | 221 | COc1nc(N2C[C@H]3C(=O)N(C)C(=N)N[C@@]3(c3ccc(F)c(Cl)c3F)C2)nc(C)c1F (racemic) [39 racemic] | 3 | 61
> 20 | > 20 | > 20 | > 20 | > 20 | > 20 | – | – | 162 | COc1nc(N2C[C@H]3C(=O)N(C)C(=N)N[C@@]3(c3cc(F)ccc3Cl)C2)nc(C)c1F [Example 2] | 8 | 50
> 20 | > 20 | > 20 | > 20 | 12.7 | 8.5 | – | – | – | COc1nc(N2C[C@H]3C(=O)N(C)C(=N)N[C@@]3(c3cc(Cl)ccc3F)C2)nc(C)c1F [Example 3] | 22 | 89
18.6 | > 30 | > 30 | > 30 | ~30 | ~30 | 0.0056 | 0.066 | 386 | COc1nc(N2C[C@H]3C(=O)N(C)C(=N)N[C@@]3(c3cc(F)ccc3F)C2)nc(OC)c1F [Example 9] | 12 | 71
> 30 | > 30 | > 30 | ~30 | > 30 | > 30 | 0.0018 | 0.0075 | 583 | COc1nc(N2C[C@H]3C(=O)N(C)C(=N)N[C@@]3(c3ccc(F)cc3F)C2)nc(OC)c1F [Example 10] | 7 | 74
> 20 | > 20 | > 20 | > 20 | > 20 | > 20 | 0.015 | 0.021 | 773 | COc1nc(N2C[C@H]3C(=O)N(C)C(=N)N[C@@]3(c3c(F)cc(F)cc3F)C2)nc(C)c1F [Example 13] | – | –
> 20 | > 20 | > 20 | > 20 | > 20 | > 20 | 0.0068 | 0.117 | 236 | COc1nc(N2C[C@H]3C(=O)N(C)C(=N)N[C@@]3(c3ccc(F)cc3F)C2)nc(C2CC2)c1Cl [Example 19] | 3 | 20
8.3 | > 20 | > 20 | > 20 | 8.9 | 7.5 | 0.0045 | 0.0095 | 106 | COc1nc(N2C[C@H]3C(=O)N(C)C(=N)N[C@@]3(c3ccc(F)cc3Cl)C2)nc(C)c1F [Example 20] | 29 | 93
> 20 | > 20 | > 20 | > 20 | > 20 | ~20 | 0.0056 | 0.018 | 53 | CCc1nc(N2C[C@H]3C(=O)N(C)C(=N)N[C@@]3(c3cc(F)c(F)cc3F)C2)nc(OC)c1F [Example 22] | 35 | 96
4.2 | > 30 | ~30 | 14.7 | > 30 | > 30 | 0.0044 | 0.0615 | 1063 | COc1nc(N2C[C@H]3C(=O)N(C)C(=N)N[C@@]3(c3ccc(F)cc3)C2)nc(OC)c1F [Example 27] | 2 | 51
> 20 | > 20 | > 20 | > 20 | > 20 | > 20 | 0.026 | 0.235 | – | Cc1nc(N2C[C@H]3C(=O)N(C)C(=N)N[C@@]3(c3cc(F)ccc3F)C2)nc(C2CC2)c1F [Example 37] | 12 | 73
– | – | – | – | – | – | 0.032 | 0.067 | 346 | COc1nc(N2C[C@H]3C(=O)N(C)C(=N)N[C@@]3(c3ccc(F)cc3F)C2)nc(C(F)(F)F)c1F [Example 41] | 1 | 77
– | – | – | – | – | – | 0.011 | – | – | COc1nc(N2C[C@H]3C(=O)N(C)C(=N)N[C@@]3(c3ccc(F)cc3F)C2)nc(C(C)(F)F)c1F [Example 42] | – | –
